Laboratory results from article PMC5581131, “The novel sphingosine-1-phosphate receptors antagonist AD2900 affects lymphocyte activation and inhibits T-cell entry into the lymph nodes” (Oncotarget, 2017).

Columns and labels:
CCR7-expressing PBMCs = test: CCR7 surface expression on PBMCs, FACS; assay type: cell-based, human; conditions: 100 nM, 30-min treatment
Procedure: Figure 3 AD2900 downregulates the percentage of S1P1- and CCR7-expressing cells in PBMCs (A, B) The percentages of S1P1-positive PBMCs after the treatment with different concentrations of AD2900, FTY720, or SEW2871 and at different time points were examined by FACS analysis. S1P1 expression was tested in PBMCs after a 30-min treatment with AD2900 at different concentrations (A) or after a 30-min or 60-min treatment with 100 nM AD2900, FTY720, or SEW2871 (B). (C) The percentage of CCR7-positive PBMCs was tested by FACS analysis after a 30-min treatment with 100 nM AD2900, FTY720, or SEW2871. All the significances are compared to untreated PBMCs. Results summarize the results of at least four independent experiments. Results of Student’s t-test: *(P < 0.05, two-tailed test), ** (P < 0.01, two-tailed test), *** (P < 0.001, two-tailed test), **** (P < 0.0001, two-tailed test).
CCR7 is known as a lymph node homing receptor, and it is also involved in lymphocyte recirculation. Together with S1P1, CCR7 controls the circulation of lymphocytes between the SLOs and the blood or lymph. We therefore examined the effect of AD2900 on the level of CCR7-surface-expressing PBMCs.
Human PBMCs: For the apoptosis test, anti-AnnexinV-FITC (BD Biosciences, CA, USA) was used. […]

Jurkat cell line = test: XTT viability assay, Jurkat; assay type: cell-based, human; conditions: 1-day treatment
Procedure: (§1) Figure 1 AD2900 inhibits human lymphocyte proliferation in allogeneic activation (A, B) The levels of proliferative response of human peripheral blood lymphocytes (PBMCs) after 1-day pretreatment with different concentrations of AD2900, AD2750, YZ138, YZ158, and YZ297 (A) or AD2900, FTY720, and SEW2871 (B) were tested by human allogeneic mixed lymphocyte reaction (MLR) assay, followed by a [3H] thymidine incorporation analysis. (C) Apoptosis of AD2900-treated activated PBMCs was tested by AnnexinV-propidium iodide (PI) FACS analysis following 1-day AD2900 pretreatment and MLR. All the samples were compared to the untreated PBMC control. (D) IFN-γ secretion from activated PBMCs was tested by ELISA following a 1-day AD2900 pretreatment in MLR. On the 5th day of hMLR, supernatants were collected and assayed for the level of IFN-γ. (E) Jurkat cell viability after a 1-day treatment with different concentrations of AD2900, FTY720, and SEW2871 was tested by XTT viability assay. (F) H9, CEM/C1, and Molt4 cell viability after a 1-day treatment with different concentrations of AD2900 was tested by XTT viability assay. Graphs summarize the results of at least three independent experiments. Results of Student’s t-test: *(P < 0.05, two-tailed test), ** (P < 0.01, two-tailed test), *** (P < 0.001, two-tailed test), **** (P < 0.0001, two-tailed test). […]

IFN-γ = IFN-γ secretion from activated PBMCs, ELISA; assay type: cell-based, human; conditions: 1-day pretreatment, 5th day of MLR
Procedure: as §1, with “assay.” for “assay. (F) H9, CEM/C1, and Molt4 cell viability after a 1-day treatment with different concentrations of AD2900 was tested by XTT viability assay. Graphs summarize the results of at least three independent experiments. Results of Student’s t-test: *(P < 0.05, two-tailed test), ** (P < 0.01, two-tailed test), *** (P < 0.001, two-tailed test), **** (P < 0.0001, two-tailed test).”
Human PBLs were collected from human whole blood collected from healthy donors. […] For the thymidine incorporation assay, after 4 days of co-culture, cells were pulsed with ^3H-thymidine at 1 μCi (0.037MBq) per well (PerkinElmer, MA, USA) for 16 additional hours and then harvested onto glass-fiber filters. ^3H-thymidine incorporation was measured using Top Count. […]

[1] = set-up: method as in unpublished data; conditions: previous studies; ref unpublished data; cited from earlier work

SMILES: CCCCCCCCCCCCCCCCNC(CO)(CO)CO [AD2900]
- reduction of the normal percentage of CCR7-expressing cell population (CCR7-expressing PBMCs): 22% ± 5%
- concentrations leading to reduced viability of Jurkat cells (Jurkat cell line): higher than 10 μM
- effect on Jurkat viability compared to FTY720 and SEW2817 (Jurkat cell line): lower than that with FTY720 treatment and higher than that with SEW2817
- IFN-γ concentrations in the supernatant (IFN-γ): reduced level
- stable at room temperature [1]: at least 2 years
